Test results published in patent US20100234314A1, “IDARUBICIN FOR THE TREATMENT OF LYMPHOMA IN A DOG” (priority 2007, published 2010).
Read-outs that look alike come from different tables or passages of the source.

What was measured:
[1] = system: 3132 canine lymphoma cell line (B-cell LSA line); assay: In vitro anti-proliferation assay (MTS), 3132 cell line; assay type: cell-based; conditions: Canis lupus familiaris; 3132, B-cell LSA line
Source text: (§1) (2) Ex vivo canine lymphoma nodal tissue. […] (3) In vitro Anti-Proliferation Assay Method.
(§2) (Mean Drug Treatment OD−Mean media blank OD)×100=% Control Proliferation
(§3) (Mean Untreated OD−Mean media blank OD)

[2] = system: CL-1 canine lymphoma cell line (T-cell LSA line); assay: In vitro anti-proliferation assay (MTS), CL-1 cell line; assay type: cell-based; conditions: Canis lupus familiaris; CL-1, T-cell LSA line
Source text: as §1, §2, §3

[3] = system: canine lymphoma cell lines; assay: Anti-proliferation, canine lymphoma cell lines; assay type: cell-based; conditions: summary
Source text: as §1, §2, §3

[4] = Oral bioavailability in dogs, effect of feeding; assay type: in vivo; conditions: dog
[5] = system: ex-vivo derived canine lymphoma cells (nodal tissue); assay: In vitro anti-proliferation assay (MTS), ex vivo canine lymphoma nodal tissue; conditions: for Inhibition of the proliferation of canine lymphoma nodal tissues: summary; for IC50: read-out: Anti-proliferation IC50
Source text: The study utilized an in vitro assay run with ex-vivo derived canine lymphoma cells and with established cell lines maintained over many passages using standard tissue culture techniques. Nodal tissues were obtained from canine lymphoma patients at the MSU Veterinary Clinic.
(2) Ex vivo canine lymphoma nodal tissue. Malignant lymph nodes were excised by veterinary staff at Michigan State University (MSU) Veterinary College, placed into transport media (Advanced RPMI 1640 complete medium supplemented with 10% Fetal Bovine Serum (FBS), 100 U/mL penicillin, 100 ug/mL streptomycin and 0.25 ug/mL Amphotercin B (Invitrogen/Gibco®). Nodes were processed within 24 hours of removal by mincing into tiny pieces and passing through a tissue sieve. Cell suspensions were spun at 200×g, supernatant was removed, and the cell pellet was resuspended in NH4Cl (0.15M) for 10 minutes at room temperature. The cell suspension was pelleted by centrifugation; the NH4Cl was removed and washed once with Hanks Balanced Salt Solution (HBSS), followed by re-suspension in Proliferation Medium (Advanced RPMI complete, 1% FBS, 50 nM 2-Mercaptoethanol, 100 U/mL penicillin, 100 ug/mL streptomycin and 0.25 ug/mL Amphotercin B). The cell suspension was then passed through a 100 μm nylon cell strainer (BD-Falcon) and counted using a hemacytometer. Cells were cultured in either Proliferation Medium alone, Proliferation Medium supplemented with 0.005% Pansorbin® (Heat inactivated, formalin-fixed Staphylococcus Aureus cells (SAC), Calbiochem), and 10 ng/mL canine IL-2 (R&D Systems), or Proliferation Medium supplemented with 125 ng/mL concavalin A (Sigma) and 125 ng/mL lipopolysaccamide (LPS; Calbiochem). (3) In vitro Anti-Proliferation Assay Method. Cells cultured in medium described above were plated in 96-well Costar plates (Corning) at a density of 1×10^3 cells/well (lymphoma cell lines) or 2×10^5 cells/well (lymph node cells) and exposed to various concentrations of test compounds for up to 5 days at 37° C. in a humidified incubator with 5% CO2. Effects on proliferation were determined using the CellTiter 96® Aqueous Non-Radioactive Cell Proliferation Assay (Promega) according to manufacturer's instructions. In general, proliferation was indirectly measured using a soluble tetrazolium salt (MTS) and an electron coupling agent. MTS bioreduction into a formazan product soluble in tissue culture medium was monitored by absorbance at 490 nm on a Spectramax plate reader using Softmax Pro 4.6 software (Molecular Devices). […] (4) Data Analysis: For nodal tissue, data were handled in the following manner through Prism 4.0 (Graphpad Software). Mean values from raw optical density values (OD) were calculated for the Un-stimulated, Simulated and all Drug Treatment (triplicates) and used in the following formula:
(Mean Drug Treatment OD−Mean Un-stim OD)×100=% Control Proliferation
(Mean Stim OD−Mean Un-stim OD)
Once calculated, these values for each drug concentration (or standard) were graphed and an IC50 calculated by a point to point analysis. Percent control values were not allowed to exceed 100% or fall below 0% for analysis of IC50 values.

[6] = MSU LN 1, chemotherapy resistant B-cell LSA, stimulant SAC + IL-2
[7] = MSU LN 1 ID618801, chemotherapy resistant B-cell LSA, stimulant LPS + ConA
[8] = MSU LN 6, chemotherapy resistant T-cell LSA, stimulant SAC + IL-2
[9] = MSU LN 6 ID401557, chemotherapy resistant T-cell LSA, stimulant LPS + ConA
[10] = MSU LN 7 ID663780, chemotherapy resistant T-cell LSA, stimulant LPS + ConA
[11] = MSU LN 8, de novo T-cell lymphoma, stimulant SAC + IL-2
[12] = MSU LN 8 ID668165, de novo T-cell lymphoma, stimulant LPS + ConA
[13] = MSU LN 10 ID401979, chemotherapy resistant B-cell LSA, stimulant LPS + ConA

Row | IC50 [1] | IC50 [2] | IC50 [5, 6] | IC50 [5, 7] | IC50 [5, 8] | IC50 [5, 9] | IC50 [5, 10] | IC50 [5, 11] | IC50 [5, 12] | IC50 [5, 13] | IC50 ([5]; MSU LN 11 ID671795, de novo B-cell LSA, stimulant LPS + ConA) | IC50 ([5]; MSU LN 14 ID403527, de novo T-cell LSA, stimulant Con A) | Structure (SMILES) | Inhibition of the proliferation of canine lymphoma cell lines [3] | Oral bioavailability, effect of feeding [4] | Potency and cytotoxicity compared with doxorubicin ([5]; all nodal and cell line lymphomas regardless of B or T-cell lineage) | Inhibition of proliferation compared with doxorubicin ([5]; all nodal tissue from dogs diagnosed with chemotherapy resistant lymphomas) | Inhibition of the proliferation of canine lymphoma nodal tissues [5]
1 | 2.7 nM | 1.9 nM | 7.5 nM | 7.5 nM | 2.5 nM | 3 nM | 2.5 nM | 3 nM | 4 nM | 56 nM | 4 nM | 11 nM | CC(=O)[C@]1(O)Cc2c(O)c3c(c(O)c2[C@@H](O[C@H]2C[C@H](N)[C@H](O)[C@H](C)O2)C1)C(=O)c1ccccc1C3=O [Idarubicin, idarubicin] | inhibited | not adversely affected by feeding | more potent and cytotoxic than doxorubicin | more effective | dose dependent inhibition
2 | – | 4.3 nM | 11 nM | 55 nM | 13 nM | 28 nM | 10 nM | 7 nM | 9 nM | > 100 nM | – | – | COc1cccc2c1C(=O)c1c(O)c3c(c(O)c1C2=O)C[C@@](O)(C(=O)CO)C[C@@H]3O[C@H]1C[C@H](N)[C@H](O)[C@H](C)O1 [Doxorubicin, doxorubicin] | inhibited | – | – | – | dose dependent inhibition
